Tests used:
male Wistar rats [1] = assay: Inhibition test of the radiofrequency decerebrate rigidity; assay type: in vivo; conditions: inhibition time of hindlimb rigidity, intravenously, 5 mg/kg, dissolved in propylene glycol
Procedure: The rigidity animals were prepared according to the method of Ono et al. [Gen. Pharm., vol. 18, pages 57 - 59 (1987)].
Four male Wistar rats weighing 250 to 350 g were used for each group. The animals were anesthetized with ethyl ether and fixed on a brain stereotaxic apparatus to break the midbrain bilaterally (APO, V-3, L±1.5). Rigidity occurred gradually in the hindlimbs after discontinuation of ethyl ether anesthesia. The test drugs dissolved in propylene glycol were administered intravenously in a dose of 5 mg/kg (0.1 ml per 100 g of rat) to determine the inhibition time of the rigidity.

male Wistar rats [2] = assay: Inhibition test of anemic decerebrate rigidity; assay type: in vivo; conditions: inhibition time of forelimb rigidity, intravenously, 5 mg/kg, dissolved in polyethlene glycol 400
Procedure: The rigidity animals were prepared according to the method of Fukuda et al. [Japanese J. Pharmacol., vol. 24, pages 810 - 813 (1974)].
Four male Wistar rats weighing 250 to 350 g were used for each group.
The animal was incised on the cervical region under the ethyl ether anesthesia, and the common carotid arteries were ligated bilaterally. A trephined opening was made in the occipital bone and the basilar artery was coagulated using a bipolar electro-coagulator. Marked rigidity occurred on the forelimbs after discontinuation of the ethyl ether anesthesia. The test drugs dissolved in polyethlene glycol 400 were each administered intravenously in a dose of 5 mg/kg (0.1 ml per 100 g of rat) to determine the inhibition time of the rigidity.

male ICR mice [3] = assay: Straub tail test (morphine-induced tail elevation); assay type: in vivo; conditions: orally 100 mg/kg, 15 mg/kg morphine hydrochloride s.c. after 15 minutes, tail elevation determined after 30 minutes, positive when angle less than 45°
Procedure: The test was carried out according to the method of Ellis et al. [Neuropharmacology, vol. 13, pages 211 - 214 (1974)]. Five male ICR mice weighing 20 to 30 g were used for each group. The test drugs suspended in 0.4% aqueous carboxymethylcellulose solution were administered orally in a dose of 100 mg/kg (0.1 ml per 10 g of mouse). After 15 minutes, 15 mg/kg of morphine hydrochloride was administered subcutaneously, and after 30 minutes, the tail elevation was determined. The muscle relaxation activity was defined as positive when the angle of tail elevation from the horizontal was less than 45°. As a result, the inhibition ratio of Compounds 2, 4 and 8 were each 100%.

Acute toxicity test = assay type: in vivo, ICR mice; conditions: mouse, in vivo, po; mice; p.o.; survivals observed 7 days after administration; read-out: LD₅₀ value
Procedure: (§1) Ten male ICR mice weighing 25 to 34 g were used. Compound 4 suspended in 0.4 aqueous carboxymethylcellulose solution was each administered orally to mice in a volume of 0.1 ml per 10 g of mice. The survivals were observed 7 days after administration.

male ICR mice [4] = assay: Acute toxicity test; assay type: in vivo; conditions: orally, dose of 1 g/kg, observed 7 days after administration
Procedure: as §1

| Compound | Inhibition Time (male Wistar rats [1]) [min] | Inhibition Time (male Wistar rats [2]) [min] | inhibition ratio (male ICR mice [3]) [%] | LD50 at 168 h (Acute toxicity test) [mg/kg] | death (male ICR mice [4]) |
| --- | --- | --- | --- | --- | --- |
| CC(C(=O)NC1CC1)S(=O)(=O)c1ccccc1Cl (centres unmarked) [Compound 2, N-cyclopropyl-2-(2-chlorophenylsulfonyl)propionamide] | 11.7 | 5.0 | 100 | – | – |
| CC(C(=O)NC1CC1)S(=O)(=O)c1ccccc1Br (centres unmarked) [Compound 4, N-cyclopropyl-2-(2-bromophenylsulfonyl)propionamide] | 37.0 | – | 100 | > 1000 | No death occurred |
| CC(C(=O)NC1CC1)S(=O)(=O)c1ccc(Cl)cc1Cl (centres unmarked) [Compound 8, N-cyclopropyl-2-(2,4-dichlorophenylsulfonyl)propionamide] | 78.0 | 17.7 | 100 | – | – |
| CC(C(=O)NC1CC1)S(=O)(=O)c1ccc(F)cc1Cl (centres unmarked) [Compound 11] | 24.0 | – | – | – | – |

Source: EP0454459A2, “Sulfonylalkanoic acid amide derivatives” (TAISHO PHARMACEUTICAL CO. LTD, priority 1990, dated 1991)
